Results published in ChEMBL document CHEMBL1275409, “Antimicrobial-resistant pathogens in intensive care units in Canada: results of the Canadian National Intensive Care Unit (CAN-ICU) study, 2005-2006” (2008).

Assays:
Format in all cases: functional
Staphylococcus aureus [1] = assay: Antimicrobial activity against methicillin-resistant Staphylococcus aureus isolated from ICU patient respiratory tract assessed as resistant isolates by broth microdilution method
Staphylococcus aureus [2] = assay: Antimicrobial activity against methicillin-resistant Staphylococcus aureus isolated from ICU patient wound assessed as resistant isolates by broth microdilution method
Staphylococcus aureus [3] = assay: Antimicrobial activity against methicillin-resistant Staphylococcus aureus isolated from ICU patient urine assessed as resistant isolates by broth microdilution method
Staphylococcus aureus [4] = assay: Antimicrobial activity against methicillin-resistant Staphylococcus aureus isolated from ICU patient blood assessed as resistant isolates by broth microdilution method
Staphylococcus aureus [5] = assay: Antimicrobial activity against methicillin-resistant Staphylococcus aureus assessed as resistant isolates by broth microdilution method
Staphylococcus aureus [6] = assay: Antimicrobial activity against methicillin-susceptible Staphylococcus aureus isolated from ICU patient respiratory tract assessed as resistant isolates by broth microdilution method
Staphylococcus aureus [7] = assay: Antimicrobial activity against methicillin-susceptible Staphylococcus aureus isolated from ICU patient wound assessed as resistant isolates by broth microdilution method
Staphylococcus aureus [8] = assay: Antimicrobial activity against methicillin-susceptible Staphylococcus aureus isolated from ICU patient urine assessed as resistant isolates by broth microdilution method
Staphylococcus aureus [9] = assay: Antimicrobial activity against methicillin-susceptible Staphylococcus aureus isolated from ICU patient blood assessed as resistant isolates by broth microdilution method
Staphylococcus aureus [10] = assay: Antimicrobial activity against methicillin-susceptible Staphylococcus aureus assessed as resistant isolates by broth microdilution method
Haemophilus influenzae [11] = assay: Antimicrobial activity against Haemophilus influenzae assessed as resistant isolates by broth microdilution method
Haemophilus influenzae [12] = assay: Antimicrobial activity against Haemophilus influenzae isolated from ICU patient blood assessed as resistant isolates by broth microdilution method
Haemophilus influenzae [13] = assay: Antimicrobial activity against Haemophilus influenzae isolated from ICU patient wound assessed as resistant isolates by broth microdilution method
Haemophilus influenzae [14] = assay: Antimicrobial activity against Haemophilus influenzae isolated from ICU patient respiratory tract assessed as resistant isolates by broth microdilution method
Pseudomonas aeruginosa [15] = assay: Antimicrobial activity against carbapenem-resistant Pseudomonas aeruginosa isolated from ICU patient respiratory tract assessed as resistant isolates by broth microdilution method
Pseudomonas aeruginosa [16] = assay: Antimicrobial activity against carbapenem-resistant Pseudomonas aeruginosa isolated from ICU patient wound assessed as resistant isolates by broth microdilution method
Pseudomonas aeruginosa [17] = assay: Antimicrobial activity against carbapenem-resistant Pseudomonas aeruginosa isolated from ICU patient urine assessed as resistant isolates by broth microdilution method
Pseudomonas aeruginosa [18] = assay: Antimicrobial activity against carbapenem-resistant Pseudomonas aeruginosa isolated from ICU patient blood assessed as resistant isolates by broth microdilution method
Pseudomonas aeruginosa [19] = assay: Antimicrobial activity against carbapenem-resistant Pseudomonas aeruginosa assessed as resistant isolates by broth microdilution method
Klebsiella pneumoniae [20] = assay: Antimicrobial activity against ESBL producing Klebsiella pneumoniae isolated from ICU patient respiratory tract assessed as resistant isolates by broth microdilution method
Klebsiella pneumoniae [21] = assay: Antimicrobial activity against ESBL producing Klebsiella pneumoniae isolated from ICU patient wound assessed as resistant isolates by broth microdilution method
Klebsiella pneumoniae [22] = assay: Antimicrobial activity against ESBL producing Klebsiella pneumoniae isolated from ICU patient urine assessed as resistant isolates by broth microdilution method
Klebsiella pneumoniae [23] = assay: Antimicrobial activity against ESBL producing Klebsiella pneumoniae isolated from ICU patient blood assessed as resistant isolates by broth microdilution method
Klebsiella pneumoniae [24] = assay: Antimicrobial activity against ESBL producing Klebsiella pneumoniae assessed as resistant isolates by broth microdilution method
Escherichia coli [25] = assay: Antimicrobial activity against CTX-M ESBL producing Escherichia coli isolated from ICU patient respiratory tract assessed as resistant isolates by broth microdilution method
Escherichia coli [26] = assay: Antimicrobial activity against CTX-M ESBL producing Escherichia coli isolated from ICU patient urine assessed as resistant isolates by broth microdilution method
Escherichia coli [27] = assay: Antimicrobial activity against CTX-M ESBL producing Escherichia coli isolated from ICU patient blood assessed as resistant isolates by broth microdilution method
Escherichia coli [28] = assay: Antimicrobial activity against CTX-M ESBL producing Escherichia coli assessed as resistant isolates by broth microdilution method
Streptococcus pneumoniae [29] = assay: Antimicrobial activity against penicillin-resistant Streptococcus pneumoniae isolated from ICU patient respiratory tract assessed as resistant isolates by broth microdilution method
Streptococcus pneumoniae [30] = assay: Antimicrobial activity against penicillin-resistant Streptococcus pneumoniae isolated from ICU patient wound assessed as resistant isolates by broth microdilution method
Streptococcus pneumoniae [31] = assay: Antimicrobial activity against penicillin-resistant Streptococcus pneumoniae isolated from ICU patient blood assessed as resistant isolates by broth microdilution method
Streptococcus pneumoniae [32] = assay: Antimicrobial activity against penicillin-resistant Streptococcus pneumoniae assessed as resistant isolates by broth microdilution method
[33] = system: Staphylococcus epidermidis; assay: Antimicrobial activity against methicillin-resistant Staphylococcus epidermidis isolated from ICU patient wound assessed as resistant isolates by broth microdilution method
[34] = system: Staphylococcus epidermidis; assay: Antimicrobial activity against methicillin-resistant Staphylococcus epidermidis isolated from ICU patient urine assessed as resistant isolates by broth microdilution method
[35] = system: Staphylococcus epidermidis; assay: Antimicrobial activity against methicillin-resistant Staphylococcus epidermidis isolated from ICU patient blood assessed as resistant isolates by broth microdilution method
[36] = system: Staphylococcus epidermidis; assay: Antimicrobial activity against methicillin-resistant Staphylococcus epidermidis assessed as resistant isolates by broth microdilution method
[37] = system: Staphylococcus epidermidis; assay: Antimicrobial activity against methicillin-susceptible Staphylococcus epidermidis isolated from ICU patient respiratory tract assessed as resistant isolates by broth microdilution method
[38] = system: Staphylococcus epidermidis; assay: Antimicrobial activity against methicillin-susceptible Staphylococcus epidermidis isolated from ICU patient wound assessed as resistant isolates by broth microdilution method
[39] = system: Staphylococcus epidermidis; assay: Antimicrobial activity against methicillin-susceptible Staphylococcus epidermidis isolated from ICU patient urine assessed as resistant isolates by broth microdilution method
[40] = system: Staphylococcus epidermidis; assay: Antimicrobial activity against methicillin-susceptible Staphylococcus epidermidis isolated from ICU patient blood assessed as resistant isolates by broth microdilution method
[41] = system: Staphylococcus epidermidis; assay: Antimicrobial activity against methicillin-susceptible Staphylococcus epidermidis assessed as resistant isolates by broth microdilution method
Enterobacter cloacae [42] = assay: Antimicrobial activity against carbapenem-resistant Enterobacter cloacae isolated from ICU patient respiratory tract assessed as resistant isolates by broth microdilution method
Enterobacter cloacae [43] = assay: Antimicrobial activity against carbapenem-resistant Enterobacter cloacae isolated from ICU patient wound assessed as resistant isolates by broth microdilution method
Enterobacter cloacae [44] = assay: Antimicrobial activity against carbapenem-resistant Enterobacter cloacae isolated from ICU patient urine assessed as resistant isolates by broth microdilution method
Enterobacter cloacae [45] = assay: Antimicrobial activity against carbapenem-resistant Enterobacter cloacae isolated from ICU patient blood assessed as resistant isolates by broth microdilution method
Enterobacter cloacae [46] = assay: Antimicrobial activity against carbapenem-resistant Enterobacter cloacae assessed as resistant isolates by broth microdilution method
Escherichia coli [47] = assay: Antimicrobial activity against CTX-M ESBL producing Escherichia coli isolated from ICU patient wound assessed as resistant isolates by broth microdilution method
Enterococcus sp. [48] = assay: Antimicrobial activity against vancomycin-resistant Enterococcus sp. isolated from ICU patient respiratory tract assessed as resistant isolates by broth microdilution method
Enterococcus sp. [49] = assay: Antimicrobial activity against vancomycin-resistant Enterococcus sp. isolated from ICU patient wound assessed as resistant isolates by broth microdilution method
Enterococcus sp. [50] = assay: Antimicrobial activity against vancomycin-resistant Enterococcus sp. isolated from ICU patient urine assessed as resistant isolates by broth microdilution method
Enterococcus sp. [51] = assay: Antimicrobial activity against vancomycin-resistant Enterococcus sp. assessed as resistant isolates by broth microdilution method
Enterococcus sp. [52] = assay: Antimicrobial activity against vancomycin-resistant Enterococcus sp. isolated from ICU patient blood assessed as resistant isolates by broth microdilution method

With `CO/N=C(\C(=O)N[C@@H]1C(=O)N2C(C(=O)[O-])=C(C[N+]3(C)CCCC3)CS[C@H]12)c1csc(N)n1` the Activity (Staphylococcus aureus [1]) was 100%, the Activity (Staphylococcus aureus [2]) was 100% and the Activity (Staphylococcus aureus [3]) was 100%. It also gave an Activity (Staphylococcus aureus [4]) of 100%, an Activity (Staphylococcus aureus [5]) of 100% and an Activity (Staphylococcus aureus [6]) of 0%. It also gave an Activity (Staphylococcus aureus [7]) of 0%, an Activity (Staphylococcus aureus [8]) of 0% and an Activity (Staphylococcus aureus [9]) of 0%. It also gave an Activity (Staphylococcus aureus [10]) of 0%, an Activity (Haemophilus influenzae [11]) of 0% and an Activity (Haemophilus influenzae [12]) of 0%. It also gave an Activity (Haemophilus influenzae [13]) of 0%, an Activity (Haemophilus influenzae [14]) of 0% and an Activity (Pseudomonas aeruginosa [15]) of 0%. The Activity (Pseudomonas aeruginosa [16]) was 0%, the Activity (Pseudomonas aeruginosa [17]) was 0% and the Activity (Pseudomonas aeruginosa [18]) was 0%. For the same compound, the Activity (Pseudomonas aeruginosa [19]) was 0%, the Activity (Klebsiella pneumoniae [20]) was 7.6% and the Activity (Klebsiella pneumoniae [21]) was 18.9%. For the same compound, the Activity (Klebsiella pneumoniae [22]) was 17.8%, the Activity (Klebsiella pneumoniae [23]) was 9.1% and the Activity (Klebsiella pneumoniae [24]) was 10.2%. It also gave an Activity (Escherichia coli [25]) of 0.8%, an Activity (Escherichia coli [26]) of 0.4% and an Activity (Escherichia coli [27]) of 1.4%. For the same compound, the Activity (Escherichia coli [28]) was 0.7%, the Activity (Streptococcus pneumoniae [29]) was 0% and the Activity (Streptococcus pneumoniae [30]) was 0%. For the same compound, the Activity (Streptococcus pneumoniae [31]) was 0%, the Activity (Streptococcus pneumoniae [32]) was 0% and the Activity [33] was 100%. It also gave an Activity [34] of 100%, an Activity [35] of 100% and an Activity [36] of 100%. For the same compound, the Activity [37] was 0%, the Activity [38] was 33.3% and the Activity [39] was 20%. The Activity [40] was 8.9% and the Activity [41] was 16.3%.
`C[C@H]1COc2c(N3CCN(C)CC3)c(F)cc3c(=O)c(C(=O)O)cn1c23.C[C@H]1COc2c(N3CCN(C)CC3)c(F)cc3c(=O)c(C(=O)O)cn1c23.O` [LEVOFLOXACIN] gave an Activity (Staphylococcus aureus [1]) of 91.5%, an Activity (Staphylococcus aureus [2]) of 92.6% and an Activity (Staphylococcus aureus [3]) of 100%. It also gave an Activity (Staphylococcus aureus [4]) of 91.8%, an Activity (Staphylococcus aureus [5]) of 91.8% and an Activity (Staphylococcus aureus [6]) of 6.9%. For the same compound, the Activity (Staphylococcus aureus [7]) was 7.1%, the Activity (Staphylococcus aureus [8]) was 20% and the Activity (Staphylococcus aureus [9]) was 6.9%. For the same compound, the Activity (Staphylococcus aureus [10]) was 7.3%, the Activity (Enterobacter cloacae [42]) was 0% and the Activity (Haemophilus influenzae [11]) was 0%. For the same compound, the Activity (Haemophilus influenzae [12]) was 0%, the Activity (Haemophilus influenzae [13]) was 0% and the Activity (Haemophilus influenzae [14]) was 0%. The Activity (Enterobacter cloacae [43]) was 5.9%, the Activity (Enterobacter cloacae [44]) was 6.3% and the Activity (Enterobacter cloacae [45]) was 4.2%. It also gave an Activity (Enterobacter cloacae [46]) of 1.8%, an Activity (Pseudomonas aeruginosa [15]) of 3.3% and an Activity (Pseudomonas aeruginosa [16]) of 11.5%. The Activity (Pseudomonas aeruginosa [17]) was 0%, the Activity (Pseudomonas aeruginosa [18]) was 3.9% and the Activity (Pseudomonas aeruginosa [19]) was 3.6%. For the same compound, the Activity (Klebsiella pneumoniae [20]) was 21.5%, the Activity (Klebsiella pneumoniae [22]) was 40% and the Activity (Klebsiella pneumoniae [23]) was 24.2%. It also gave an Activity (Klebsiella pneumoniae [24]) of 25.5%, an Activity (Escherichia coli [25]) of 21.3% and an Activity (Escherichia coli [47]) of 24.1%. For the same compound, the Activity (Escherichia coli [26]) was 19.8%, the Activity (Escherichia coli [27]) was 23.3% and the Activity (Escherichia coli [28]) was 21.1%. It also gave an Activity (Enterococcus sp. [48]) of 46.7%, an Activity (Enterococcus sp. [49]) of 45.8% and an Activity (Enterococcus sp. [50]) of 52%. The Activity (Enterococcus sp. [51]) was 51%, the Activity (Enterococcus sp. [52]) was 56.8% and the Activity (Streptococcus pneumoniae [29]) was 2.1%. The Activity (Streptococcus pneumoniae [30]) was 0%, the Activity (Streptococcus pneumoniae [31]) was 0% and the Activity (Streptococcus pneumoniae [32]) was 1.7%. The Activity [33] was 100%, the Activity [34] was 100% and the Activity [35] was 100%. It also gave an Activity [36] of 100%, an Activity [37] of 100% and an Activity [38] of 66.7%. It also gave an Activity [39] of 80%, an Activity [40] of 42.9% and an Activity [41] of 52.3%.
